The source of these data is patent US20120041068A1, “Extended Release Pharmaceutical Preparations for Active Pharmaceutical Ingredients with pH Dependent Solubility” (Aptapharma, Inc., priority 2010, published 2012).

SMILES strings stand for the structures. Structures can show the parent of a compound that is named as a salt.

The data set in a line: Effect of crystallization inhibitor on guanfacine HCl solubility (clear vs precipitate on storage). In kind it is physicochemical. The settings on record: in the presence of polyvinyl pyrrolidone vs comparison formulation without polyvinyl pyrrolidone. From the text:
As crystallization inhibitors, highly dispersed silicon dioxide or macromolecular substances are suitable.

With `N=C(N)NC(=O)Cc1c(Cl)cccc1Cl` [guanfacine, guanfacine hydrochloride], the “tendency toward crystal formation” value is given as “less tendency toward crystal formation”.
